Measured values: PMC8534003, “The Chemokine-Based Peptide, CXCL9(74-103), Inhibits Angiogenesis by Blocking Heparan Sulfate Proteoglycan-Mediated Signaling of Multiple Endothelial Growth Factors” (Cancers, 2021)
Where no end group is shown, it is not given here. TAMRA = 5(6)-carboxytetramethylrhodamine

Tests used:
[1] = tested on: human microvascular endothelial cells (HMVECs); assay: xCELLigence chemotaxis assay (HMVEC migration); assay type: cell-based; conditions: EGF 10 ng/mL, FGF-2 30 ng/mL or VEGF165 10 ng/mL in lower chamber
Method: To evaluate the effect of the CXCL9-derived peptides on growth factor-induced endothelial cell migration, the xCELLigence® real-time cell analyzer (RTCA DP) system (ACEA Biosciences, Inc.; San Diego, CA, USA) was used. First, 160 µL MCDB131 medium (Gibco) supplemented with 0.4% (v/v) FCS (control medium) or 160 µL control medium with 30 ng/mL FGF-2, 10 ng/mL VEGF165 or 10 ng/mL EGF were added to the lower chamber of a cell invasion/migration (CIM)-Plate (ACEA Biosciences, Inc.). After assembly of the lower and upper chamber, 50 µL of serum-free MCDB131 medium was added in the upper wells. Following equilibration of the plate at 37 °C for 1 h, HMVECs were added in the upper chamber at 4 × 10^4 cells in 100 µL/well. CXCL9(74-103) or CXCL9(86-103) was added together with the cells in the upper compartment at a concentration of 0.3 or 3 µM. The assembled CIM-Plate was left at room temperature for 30 min to allow the cells to settle onto the membrane. Finally, the plate was placed in the instrument at 37 °C to monitor cell migration for 15 h. Cell migration from one compartment to the other was recorded (one recording every minute) as changes in electrical impedance. These changes were converted into cell indices, as a measure of cell migration.

[2] = tested on: human microvascular endothelial cells (HMVECs); assay: Endothelial cell proliferation assay (MTT or ATP lite); assay type: cell-based; conditions: EGF, VEGF165 5 ng/mL or FGF-2 3 ng/mL as single stimulus
Method: The ability of the CXCL9-derived peptides to inhibit growth factor-induced proliferation of endothelial cells was assessed. HMVECs were seeded at 5 × 10^3 cells/well in EBM™-2 medium containing 1% (v/v) FCS (proliferation medium). After settling of the cells, they were stimulated with EGF, VEGF165 (both 5 ng/mL) or FGF-2 (3 ng/mL) as a single stimulus or in combination with CXCL9(86-103) or CXCL9(74-103) at 0.3 or 3 µM in proliferation medium or left untreated. HMVECs were also treated with 0.3 or 3 µM of CXCL9(74-103) or 3 µM of CXCL9(86-103) alone to assess the effect of CXCL9-derived peptide treatment on spontaneous proliferation. After 3 to 4 days, a 3-(4,5-dimethylthiazol-2-yl)-2,5-diphenyl tetrazolium bromide (MTT) or ATP lite assay was performed. The ATP lite assay was performed according to the manufacturer’s instructions (Perkin Elmer, Waltham, MA). When MTT was used as substrate, the medium was replaced with 200 µL of MTT solution (RPMI without phenol red containing 0.4 g/L MTT) and the cells were incubated at 37 °C and 5% CO2 in the dark for 4 hours. Then, the MTT solution was discarded and the formed formazan crystals were dissolved in 200 µL acidic propanol [0.04 M HCl, 0.1% (v/v) NP-40 in isopropanol] under continuous shaking in the dark for 10 min. The optical densities were measured at 570 nm and 630 nm (reference wavelength).

phospho-ERK1/2 = assay: Signal transduction assay, EGF-induced ERK phosphorylation in HMVECs (ELISA); assay type: cell-based, human; conditions: EGF 10 ng/mL, 15 min, compared to control (100%), n ≥ 3
Method: HMVECs and MECs were seeded in 6-well plates at 1.25 × 10^5 cells/well in their respective culture medium. Once the cell density reached 70–80% confluency, the cells were starved in serum-free medium overnight. Fifteen minutes prior to stimulation, cells were incubated with various concentrations of CXCL9(74-103) or CXCL9(86-103) in 0.5% (v/v) BSA in MCDB131 or DMEM medium (assay medium for HMVECs and MECs, respectively) at 37 °C. HMVECs and MECs were stimulated with assay medium alone or supplemented with 10 ng/mL EGF or 5 ng/mL murine VEGF165 at 37 °C for 15 or 5 min, respectively. Then, the cells were placed on ice, washed with ice-cold PBS and 90 µL of lysis buffer [1% (v/v) protease inhibitor cocktail, phosphatase inhibitor cocktail 2 and 3 (all Sigma-Aldrich) in 1 mM ethylenediaminetetraacetic acid (EDTA), 0.5% (v/v) Triton™ X-100, 5 mM NaF, 6 M urea in PBS] was added per well. […] The amount of phospho-ERK1/2 in the cell lysates was determined using an ERK1 (Thr202/Tyr204)/ERK2 (Thr185/Tyr187) ELISA duoset (R&D Systems) according to the manufacturer’s instructions. The amount of phosphorylated ERK was normalized to the total protein content in the samples measured by the Pierce™ bicinchoninic acid (BCA) protein assay kit (Thermo Fisher Scientific).

[3] = tested on: cell surface HS on HMVECs; assay: Cellular HS binding of TAMRA-labeled CXCL9(74-103), flow cytometry; set-up: species or system human; conditions: 1 representative of 3 experiments
Method: CXCL9(74-103) binding to cellular HS was assessed via flow cytometry. HMVECs were either left untreated or incubated with 0.75 U/mL heparinase II (Sigma-Aldrich) at 37 °C for 2 h. Cells were harvested and left at room temperature for 1 h to recuperate, they were then placed on ice and centrifuged. After centrifugation (300 g, 4 °C, 7 min) and resuspension in PBS, 1 × 10^5 cells per condition were stained with 3, 0.6 or 0.12 nM TAMRA-labeled CXCL9(74-103). To verify downregulation of HS expression, cells were stained with mouse anti-HS Ab (clone F58-10E4, Cat No 370255-S; Amsbio, Abingdon, UK) and R-PE goat anti-mouse IgM Ab (Cat No 115-116-075; Jackson ImmunoResearch, Westgrove, PA, USA). Flow cytometric analysis was performed using the BD LSRFortessa™ X-20 flow cytometer and FlowJo software (both BD Biosciences).

[4] = tested on: FGF-2-induced angiogenesis, C57BL/6 mice; assay: In vivo angiogenesis Matrigel plug assay; set-up: species or system mouse; conditions: 180 ng FGF-2 alone, day 7
Method: Six-to-eight-week-old female C57BL/6 mice were anesthetized with a mixture of 2.5 mg/mL xylazine (V.M.D, Inovet, Arendonk, Belgium) and 37.5 mg/mL ketamine (Dechra, Northwich, UK) in PBS by i.p. injection. A vertical dorsal incision was made and an ALZET osmotic pump (model 1007D, DURECT Corporation, Cupertine, CA, USA) filled with 400 µg/100 µL CXCL9(74-103) or 100 µL PBS was subcutaneously (s.c.) implanted. The incision was closed with a surgical suture. Growth factor-reduced Matrigel (Corning Matrigel Growth Factor (GFR) Basement Membrane Matrix, Phenol Red-Free, LDEV-Free; Corning Life Sciences, Amsterdam, The Netherlands) was s.c. injected in the dorsal flank forming a firm plug (600 µL/plug). The Matrigel was either injected as such (control plugs) or supplemented with 300 µg CXCL9(74-103) and/or 180 ng FGF-2. Seven days later, the mice were sacrificed. Thirty minutes before sacrifice, the mice were i.v. injected with 200 µL (25 mg/kg) FITC-labeled 2000 kDa dextran (Sigma-Aldrich) to quantify vessel formation in the Matrigel plugs. Blood was collected through cardiac puncture into heparinized tubes containing 20 µL heparin (5.000 IE/mL, Leo Pharma, Ballerup, Denmark). The blood was centrifuged at 200 g and 4 °C for 10 min, whereafter the supernatant was centrifuged at 3000 g and 4 °C for 10 min. The collected plasma was stored away from light at 4 °C until analysis. The Matrigel plugs were removed and enzymatically and mechanically digested in 1.2 mL dispase (Corning Life Sciences) using an incubation at 37 °C for 1.5 h and the gentleMACS™ Dissociator (Miltenyi Biotec, Bergisch Gladbach, Germany). The digested Matrigel plugs were filtered through a 70 µm cell strainer, washed with 1.5 mL FACS buffer [2% (v/v) FCS + 2 mM EDTA in PBS] and centrifuged at 300 g and 4 °C for 7 min. The supernatant (SN) was centrifuged again at 300 g and 4 °C for 7 min and the SN was retained away from light at 4 °C until analysis. The pellet was resuspended in 1 mL FACS buffer, the cells were counted and used for flow cytometry. The antibodies used to identify endothelial cells were anti-mouse CD45-APC (clone 30-F11, eBioscience, Thermo Fisher Scientific), anti-mouse CD146-PE (clone ME-9F1) and anti-mouse Pan-endothelial Cell Antigen-BV711 (clone MECA-32) antibodies (both BD Biosciences). Mice experiments were approved by the Ethical Committee of KU Leuven (project number P199/2018).

HMVEC spheroids = assay: Spheroid sprouting assay; assay type: cell-based, human; conditions: FGF-2 10 ng/mL, 16 hours
Method: A 1:5 mixture of endothelial cells (4 × 10^4 cells/mL) and methylcellulose (Sigma-Aldrich, Saint Louis, MO, USA; 12 mg/mL in EBM™-2 basal medium) in EBM™-2 cell culture medium was prepared. Drops of 1 × 10^3 HMVECs were plated on a petri dish and allowed to form single spheroids in hanging droplets at 37 °C, 5% CO2 for 24 h. Spheroids were collected, sedimented by centrifugation and resuspended in a mixture of 24 mg/mL methylcellulose in basal EBM™-2, 1 mg/mL collagen type I (BD Biosciences, San Jose, CA, USA), 2.5 mg/mL NaHCO3 and 10 mM NaOH. The suspension was plated in a 96-well plate and the collagen was allowed to polymerize at 37 °C, 5% CO2 for 30 min. Spheroids were left untreated or stimulated with 0.3 or 3 µM of CXCL9(74-103) or 3 µM of CXCL9(86-103) for 15 min prior to addition of 10 ng/mL FGF-2 or 10 ng/mL EGF in EBM™-2 + 3% (v/v) FCS. In some experiments, HMVECs were pretreated with heparinase II (vide infra). After 16 hours, spheroid sprouting was assessed with an inverted Axiovert 200M microscope (Zeiss, Germany) through a 10× objective. The average number of sprouts was calculated and the average sprout length per spheroid was measured using Fiji software.
Sprouting experiments examining the dependency on HS binding for the inhibitory action of CXCL9(74-103) were performed as described above (vide supra). […]

Substance | enhancement of migration by growth factor alone [1] | enhancement of proliferation by growth factor alone [2] | phospho-ERK content (phospho-ERK1/2) [%] | binding to untreated HMVECs ([3]; 3, 0.6 or 0.12 nM TAMRA-labeled peptide) | binding to heparinase II-treated HMVECs ([3]; heparinase II 0.75 U/mL, 37 °C, 2 h, 3, 0.6 or 0.12 nM) | CD146+MECA-32+ cell population, FGF-2 compared to control [4] [fold] | fluorescence ratio, FGF-2 plug compared to control [4] | number of cells inside plug, FGF-2 compared to control [4] [fold] | sprouting in response to FGF-2 alone (HMVEC spheroids)
EGF: human recombinant EGF (R&D Systems), stimulus | significant enhancement of endothelial cell migration | significant enhancement of proliferation | 247 | – | – | – | – | – | –
TAMRA-labeled CXCL9(74-103): CXCL9(74-103) fluorescently labeled at the NH2-terminus with 5(6)-carboxytetramethylrhodamine ({TAMRA}-KKKQKNGKKHQKKKVLKVRKSQRSRQKKTT; UniProt Q07325 96-125, looked up, fragment) | – | – | – | bound CXCL9(74-103) in a concentration-dependent manner | bound CXCL9(74-103) less efficiently compared to cells with intact HS | – | – | – | –
FGF-2: human recombinant FGF-2 (R&D Systems), stimulus | significant enhancement of endothelial cell migration | significant enhancement of proliferation | – | – | – | ~3 | doubled the fluorescence ratio compared to the control | ~3 | pronounced endothelial sprouting
